Where a SMILES comes first, the peptide text is derived from it. Bridges are numbered along the chain shown (N, C = ends).
target: T1, recombinant human VEGF165 (Homo sapiens, UniProt P15692); assay: VEGF peptide binding assay (competition ELISA, VEGF165 binding to coated VEGFR2/Fc)
T1 sequence (P15692 27-191 isoform P15692-4): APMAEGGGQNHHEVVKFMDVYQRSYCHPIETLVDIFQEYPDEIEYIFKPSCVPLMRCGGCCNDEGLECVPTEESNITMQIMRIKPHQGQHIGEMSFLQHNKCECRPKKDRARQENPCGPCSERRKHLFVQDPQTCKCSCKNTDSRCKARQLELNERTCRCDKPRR
Summary of the method: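 VEGFR2/Fc was coated, and peptides (0.128–10,000 nM, N-acetyl, C-amide) were preincubated with 25 ng/ml human VEGF165 and added for 1 h at RT. Bound VEGF was detected with biotinylated anti-VEGF, streptavidin-HRP and TMB at OD450. IC50 came from sigmoid dose-response fits of OD450 versus concentration.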

| Structure (SMILES) | IC50 [nM] |
| --- | --- |
| CC[C@H](C)[C@@H]1NC(=O)[C@H](CC(=O)O)NC(=O)[C@@H](NC(=O)[C@H](CC(N)=O)NC(=O)[C@@H]2CCCN2C(=O)[C@H](CCC(=O)O)NC(=O)[C@@H](NC(C)=O)C(C)C)CSSC[C@@H](C(=O)N[C@@H](Cc2ccccc2)C(=O)N[C@@H](CCC(=O)O)C(=O)N[C@@H](CCCNC(=N)N)C(=O)N[C@@H](CC(C)C)C(=O)N[C@@H](Cc2ccc(O)cc2)C(=O)NCC(=O)N[C@@H](CC(C)C)C(=O)N[C@@H](CO)C(N)=O)NC(=O)[C@H](CCC(=O)O)NC(=O)[C@H](Cc2c[nH]c3ccccc23)NC(=O)[C@H](C(C)C)NC(=O)[C@H](Cc2c[nH]c3ccccc23)NC(=O)[C@H](CCSC)NC(=O)[C@H](C(C)C)NC(=O)[C@H](Cc2c[nH]cn2)NC1=O [Compound 71, VEPNCDIHVMWVWECFERLYGLS] (Ac-VEPNCDIHVMWVWECFERLYGLS-NH2; disulfide 5-15 (inferred)) | 5.4 |
| CC[C@H](C)[C@@H]1NC(=O)[C@H](CC(=O)O)NC(=O)[C@@H](NC(=O)[C@H](CC(N)=O)NC(=O)[C@@H]2CCCN2C(=O)[C@H](CCC(=O)O)NC(=O)[C@@H](NC(C)=O)C(C)C)CSSC[C@@H](C(=O)N[C@@H](Cc2ccccc2)C(=O)N[C@@H](CCC(=O)O)C(=O)N[C@@H](CCCNC(=N)N)C(=O)N[C@@H](CC(C)C)C(=O)N[C@@H](Cc2ccc(O)cc2)C(=O)NCC(=O)NCC(N)=O)NC(=O)[C@H](CCC(=O)O)NC(=O)[C@H](Cc2c[nH]c3ccccc23)NC(=O)[C@H](C(C)C)NC(=O)[C@H](Cc2c[nH]c3ccccc23)NC(=O)[C@H](CCSC)NC(=O)[C@H](C(C)C)NC(=O)[C@H](Cc2c[nH]cn2)NC1=O [Compound 52, VEPNCDIHVMWVWECFERLYGG] (Ac-VEPNCDIHVMWVWECFERLYGG-NH2; disulfide 5-15 (inferred)) | 32.3 |
| CC[C@H](C)[C@H](NC(=O)[C@H](CC(C)C)NC(=O)[C@H](CCCNC(=N)N)NC(=O)[C@H](CCC(=O)O)NC(=O)[C@H](Cc1ccccc1)NC(=O)[C@@H]1CSSC[C@H](NC(=O)[C@H](CC(N)=O)NC(=O)[C@@H]2CCCN2C(=O)[C@H](CCC(=O)O)NC(=O)[C@@H](NC(C)=O)C(C)C)C(=O)N[C@@H](CC(=O)O)C(=O)N[C@@H]([C@@H](C)CC)C(=O)N[C@@H](Cc2c[nH]cn2)C(=O)N[C@@H](C(C)C)C(=O)N[C@@H](CCSC)C(=O)N[C@@H](Cc2c[nH]c3ccccc23)C(=O)N[C@@H](C(C)C)C(=O)N[C@@H](Cc2c[nH]c3ccccc23)C(=O)N[C@@H](CCC(=O)O)C(=O)N1)C(=O)N[C@@H](CCCCN)C(N)=O [Compound 57, VEPNCDIHVMWVWECFERLIK] (Ac-VEPNCDIHVMWVWECFERLIK-NH2; disulfide 5-15 (inferred)) | 25.4 |
| CC[C@H](C)[C@@H]1NC(=O)[C@H](CC(=O)O)NC(=O)[C@@H](NC(=O)[C@H](CC(N)=O)NC(=O)[C@@H]2CCCN2C(=O)[C@H](CCC(=O)O)NC(=O)[C@@H](NC(C)=O)C(C)C)CSSC[C@@H](C(=O)N[C@@H](Cc2ccccc2)C(=O)N[C@@H](CCC(=O)O)C(=O)N[C@@H](CCCNC(=N)N)C(=O)N[C@@H](CC(C)C)C(=O)N[C@@H](CC(C)C)C(=O)N[C@@H](CCCCN)C(N)=O)NC(=O)[C@H](CCC(=O)O)NC(=O)[C@H](Cc2c[nH]c3ccccc23)NC(=O)[C@H](C(C)C)NC(=O)[C@H](Cc2c[nH]c3ccccc23)NC(=O)[C@H](CCSC)NC(=O)[C@H](C(C)C)NC(=O)[C@H](Cc2c[nH]cn2)NC1=O [Compound 67, VEPNCDIHVMWVWECFERLLK] (Ac-VEPNCDIHVMWVWECFERLLK-NH2; disulfide 5-15 (inferred)) | 10.1 |
| CC[C@H](C)[C@@H]1NC(=O)[C@H](CC(=O)O)NC(=O)[C@@H](NC(=O)[C@H](CC(N)=O)NC(=O)[C@@H]2CCCN2C(=O)[C@H](CCC(=O)O)NC(=O)[C@@H](NC(C)=O)C(C)C)CSSC[C@@H](C(=O)N[C@@H](Cc2ccccc2)C(=O)N[C@@H](CCC(=O)O)C(=O)N[C@@H](CCCNC(=N)N)C(=O)N[C@@H](CC(C)C)C(=O)N[C@@H](Cc2ccc(O)cc2)C(=O)NCC(=O)NCC(=O)N[C@@H](Cc2c[nH]c3ccccc23)C(N)=O)NC(=O)[C@H](CCC(=O)O)NC(=O)[C@H](Cc2c[nH]c3ccccc23)NC(=O)[C@H](C(C)C)NC(=O)[C@H](Cc2c[nH]c3ccccc23)NC(=O)[C@H](CCSC)NC(=O)[C@H](C(C)C)NC(=O)[C@H](Cc2c[nH]cn2)NC1=O [Compound 35, VEPNCDIHVMWVWECFERLYGGW] (Ac-VEPNCDIHVMWVWECFERLYGGW-NH2; disulfide 5-15 (inferred)) | 325 |
| CC[C@H](C)[C@@H]1NC(=O)[C@H](CC(=O)O)NC(=O)[C@@H](NC(=O)[C@H](CC(N)=O)NC(=O)[C@@H]2CCCN2C(=O)[C@H](CCC(=O)O)NC(=O)[C@@H](NC(C)=O)C(C)C)CSSC[C@@H](C(=O)N[C@@H](Cc2ccccc2)C(=O)N[C@@H](CCC(=O)O)C(=O)N[C@@H](CCCNC(=N)N)C(=O)N[C@@H](CC(C)C)C(=O)N[C@@H](Cc2ccc(O)cc2)C(=O)NCC(=O)N[C@H](C(=O)N[C@@H](CCC(N)=O)C(N)=O)C(C)C)NC(=O)[C@H](CCC(=O)O)NC(=O)[C@H](Cc2c[nH]c3ccccc23)NC(=O)[C@H](C(C)C)NC(=O)[C@H](Cc2c[nH]c3ccccc23)NC(=O)[C@H](CCSC)NC(=O)[C@H](C(C)C)NC(=O)[C@H](Cc2c[nH]cn2)NC1=O [Compound 74, VEPNCDIHVMWVWECFERLYGVQ] (Ac-VEPNCDIHVMWVWECFERLYGVQ-NH2; disulfide 5-15 (inferred)) | 4 |
| CC[C@H](C)[C@@H]1NC(=O)[C@H](CC(=O)O)NC(=O)[C@@H](NC(=O)[C@H](CC(N)=O)NC(=O)[C@@H]2CCCN2C(=O)[C@H](CCC(=O)O)NC(=O)[C@@H](NC(C)=O)C(C)C)CSSC[C@@H](C(=O)N[C@@H](Cc2ccccc2)C(=O)N[C@@H](CCC(=O)O)C(=O)N[C@@H](CCCNC(=N)N)C(=O)N[C@@H](CC(C)C)C(=O)N[C@@H](Cc2ccc(O)cc2)C(=O)NCC(=O)N[C@@H](CCC(=O)O)C(=O)N[C@@H](Cc2ccccc2)C(N)=O)NC(=O)[C@H](CCC(=O)O)NC(=O)[C@H](Cc2c[nH]c3ccccc23)NC(=O)[C@H](C(C)C)NC(=O)[C@H](Cc2c[nH]c3ccccc23)NC(=O)[C@H](CCSC)NC(=O)[C@H](C(C)C)NC(=O)[C@H](Cc2c[nH]cn2)NC1=O [Compound 70, VEPNCDIHVMWVWECFERLYGEF] (Ac-VEPNCDIHVMWVWECFERLYGEF-NH2; disulfide 5-15 (inferred)) | 9.3 |
| CC[C@H](C)[C@@H]1NC(=O)[C@H](CC(=O)O)NC(=O)[C@@H](NC(=O)[C@H](CC(N)=O)NC(=O)[C@@H]2CCCN2C(=O)[C@H](CCC(=O)O)NC(=O)[C@@H](NC(C)=O)C(C)C)CSSC[C@@H](C(=O)N[C@@H](Cc2ccccc2)C(=O)N[C@@H](CCC(=O)O)C(=O)N[C@@H](CCCNC(=N)N)C(=O)N[C@@H](CC(C)C)C(=O)N[C@@H](Cc2ccc(O)cc2)C(=O)NCC(=O)NCC(=O)N[C@@H](Cc2ccccc2)C(N)=O)NC(=O)[C@H](CCC(=O)O)NC(=O)[C@H](Cc2c[nH]c3ccccc23)NC(=O)[C@H](C(C)C)NC(=O)[C@H](Cc2c[nH]c3ccccc23)NC(=O)[C@H](CCSC)NC(=O)[C@H](C(C)C)NC(=O)[C@H](Cc2c[nH]cn2)NC1=O [Compound 56, VEPNCDIHVMWVWECFERLYGGF] (Ac-VEPNCDIHVMWVWECFERLYGGF-NH2; disulfide 5-15 (inferred)) | 26.2 |
| CC[C@H](C)[C@@H]1NC(=O)[C@H](CC(=O)O)NC(=O)[C@@H](NC(=O)[C@H](CC(N)=O)NC(=O)[C@@H]2CCCN2C(=O)[C@H](CCC(=O)O)NC(=O)[C@@H](NC(C)=O)C(C)C)CSSC[C@@H](C(=O)N[C@@H](Cc2ccccc2)C(=O)N[C@@H](CCC(=O)O)C(=O)N[C@@H](CCCNC(=N)N)C(=O)N[C@@H](CC(C)C)C(=O)N[C@@H](CCSC)C(=O)N[C@@H](CCCNC(=N)N)C(=O)N[C@@H](CC(C)C)C(=O)N[C@H](C(N)=O)[C@@H](C)O)NC(=O)[C@H](CCC(=O)O)NC(=O)[C@H](Cc2c[nH]c3ccccc23)NC(=O)[C@H](C(C)C)NC(=O)[C@H](Cc2c[nH]c3ccccc23)NC(=O)[C@H](CCSC)NC(=O)[C@H](C(C)C)NC(=O)[C@H](Cc2c[nH]cn2)NC1=O [Compound 46, VEPNCDIHVMWVWECFERLMRLT] (Ac-VEPNCDIHVMWVWECFERLMRLT-NH2; disulfide 5-15 (inferred)) | 44.1 |
| CC[C@H](C)[C@H](NC(=O)CNC(=O)[C@H](Cc1ccc(O)cc1)NC(=O)[C@H](CC(C)C)NC(=O)[C@H](CCCNC(=N)N)NC(=O)[C@H](CCC(=O)O)NC(=O)[C@H](Cc1ccccc1)NC(=O)[C@@H]1CSSC[C@H](NC(=O)[C@H](CC(N)=O)NC(=O)[C@@H]2CCCN2C(=O)[C@H](CCC(=O)O)NC(=O)[C@@H](NC(C)=O)C(C)C)C(=O)N[C@@H](CC(=O)O)C(=O)N[C@@H]([C@@H](C)CC)C(=O)N[C@@H](Cc2c[nH]cn2)C(=O)N[C@@H](C(C)C)C(=O)N[C@@H](CCSC)C(=O)N[C@@H](Cc2c[nH]c3ccccc23)C(=O)N[C@@H](C(C)C)C(=O)N[C@@H](Cc2c[nH]c3ccccc23)C(=O)N[C@@H](CCC(=O)O)C(=O)N1)C(=O)N[C@@H](CC(C)C)C(N)=O [Compound 50, VEPNCDIHVMWVWECFERLYGIL] (Ac-VEPNCDIHVMWVWECFERLYGIL-NH2; disulfide 5-15 (inferred)) | 34.4 |

Source: US8937048B2, “Anti-angiogenic compounds” (Covx Technologies Ireland, Limited, priority 2008, dated 2015)
